{"source": "patent US20240366582A1", "about": "“TREATMENT OF RAYNAUD'S DISEASE” (Aisa Pharma, Inc., priority 2020, published 2024)", "key": {"[1]": {"test_system": "Raynaud's Phenomenon (RP) attacks in participants with SSc-RP", "assay": "Average duration of weekly RP attacks (symptomatic / all attacks), patient diary, Phase 2a Part A", "assay_type": "in vivo, human", "conditions": "for Average Duration of Weekly RP Attacks (All Attacks), Baseline, Mean / Average Duration of Weekly RP Attacks (All Attacks), Baseline, Median / Average Duration of Weekly RP Attacks (All Attacks), Average Duration, Mean / Average Duration of Weekly RP Attacks (All Attacks), Average Duration, Median: ITT Population-Part A; for Average Duration of Weekly RP Attacks (All Attacks), Baseline, Mean / Average Duration of Weekly RP Attacks (All Attacks), Baseline, Median: last 7 days of screening period, before dosing; for Average Duration of Weekly RP Attacks (All Attacks), Average Duration, Mean / Average Duration of Weekly RP Attacks (All Attacks), Average Duration, Median: last 7 days of the dosing period", "excerpt": "(§1) The Sponsor-developed participant-informed E-Diary has been and will be used in this study to record data. Participants have been or will be required to keep and fill the E-Diary daily as delineated in the SoAs ((FIG. 2 and FIG. 3A and/or FIG. 3B). • The relevant metrics measured by this tool daily are: • Study medication • SSc-RP symptoms (Reporting an attack including duration of attack) • Severity of the attack considering all symptoms of the attack e.g. tingling, numbness, pain, color changes (VAS 0-10 cm scale) • Participant's location at the time of the attack (inside home/outside home) • Selecting symptoms experienced during the attack (tingling, numbness, pain, color changes, other) • Pain rating during the attack (11-point Likert scale) • The RCS based on how much difficulty participants had with Raynaud's today, how many attacks the participant had, and how long they lasted. Participants will also be asked to consider how much pain, numbness, or other symptoms the Raynaud's caused in fingers (including painful sores), and how much the Raynaud's alone affected the use of hands today (VAS 0-10 cm scale). • The relevant metrics measured by this tool at the in-clinic visit (once in a Dosing Period) are: • Digital ulcer severity (VAS 0-10 cm scale)—Applicable only if participant has digital ulcers. • Scleroderma Health Assessment Questionnaire which includes Raynaud's VAS measuring participant quality of life over the past • Note: Digital ulcer severity (VAS 0-10 cm scale) and SHAQ scale can also be done on paper in-clinic, if necessary. Also, external temperature will be a feed into the E-Diary database based on participant's location.\nThe absolute change in average duration of weekly RP attacks from baseline to the end of each dosing period was and will be a secondary outcome variable. The sponsor-developed participant-informed diary was and will be used to record data. Average duration of weekly RP attacks is defined as the total duration of RP attacks divided by total number of RP attacks within the last 7 days of each dosing period. Total duration of RP attacks during the last 7 days of screening period divided by the total number of RP attacks will be used as baseline for the analysis of all periods. The variable will be calculated similar to frequency data as before.\nThe following data was actually obtained in accordance with the protocol and plan delineated in Examples 1 and 2. The accompanying data involved 11 patients out of the planned 76 patient study. The study was done in patients with scleroderma (systemic sclerosis) who had relatively frequent Raynaud symptoms as they needed to average at least one attack per day during a screening period of up to two weeks. In this first phase of this double-blind placebo-controlled, prospective randomized study, patients were treated in parallel and after meeting study criteria were randomized to receive either placebo, cilnidipine 10 mg daily, cilnidipine 20 mg daily, tadalafil 5 mg daily, cilnidipine 10 mg plus 5 mg of tadalafil, or cilnidipine 20 mg plus 5 mg of tadalafil."}, "[2]": {"conditions": "in vivo; cited from earlier work"}, "[3]": {"test_system": "Raynaud's Phenomenon (RP) attacks in participants with SSc-RP", "assay": "Frequency of weekly RP attacks (symptomatic attacks / all attacks), patient diary, Phase 2a Part A", "assay_type": "in vivo, human", "procedure": "A randomized, placebo-controlled phase 2a study was performed and is in progress to assess the safety and efficacy of cilnidipine (10 mg and 20 mg) alone and in combination with 5 mg tadalafil, in participants with diagnosis of secondary Raynaud's disease.\nPart A-Double-blind, Placebo-controlled, Parallel-group, Dose selection, will assess the safety and efficacy of two doses of cilnidipine (10 mg and 20 mg), alone and in combination with tadalafil. A total of 36 participants will be randomized to one of six pre-specified treatment arms. See Example 3 for data obtained in this phase of the study thus far, on 11 participants.\nThe Sponsor-developed participant-informed E-Diary has been and will be used in this study to record data. […]"}, "[4]": {"test_system": "Raynaud's Phenomenon (RP) attacks in participants with SSc-RP", "assay": "Average severity of weekly RP attacks (VAS 0-10; symptomatic / all attacks), patient diary, Phase 2a Part A", "assay_type": "in vivo, human", "conditions": "for Average Severity of Weekly Symptomatic RP Attacks, Mean: Pooled Cilnidipine 20 mg and Cilnidipine 20 mg + Tadalafil 5 mg, severity (0-10), ITT Population - Part A", "excerpt": "as §1\nThe absolute change in average severity of weekly RP attacks (VAS 0-10 cm scale) from baseline to the end of each Dosing Period was and will be a secondary outcome variable. The sponsor-developed participant-informed diary will be used to record data. […] The variable will be calculated similar to frequency data as before. […]"}, "Nav 1.7 sodium channel": {"target": "Nav 1.7 sodium channel (Homo sapiens, UniProt Q15858)", "sequence (Q15858 whole entry)": "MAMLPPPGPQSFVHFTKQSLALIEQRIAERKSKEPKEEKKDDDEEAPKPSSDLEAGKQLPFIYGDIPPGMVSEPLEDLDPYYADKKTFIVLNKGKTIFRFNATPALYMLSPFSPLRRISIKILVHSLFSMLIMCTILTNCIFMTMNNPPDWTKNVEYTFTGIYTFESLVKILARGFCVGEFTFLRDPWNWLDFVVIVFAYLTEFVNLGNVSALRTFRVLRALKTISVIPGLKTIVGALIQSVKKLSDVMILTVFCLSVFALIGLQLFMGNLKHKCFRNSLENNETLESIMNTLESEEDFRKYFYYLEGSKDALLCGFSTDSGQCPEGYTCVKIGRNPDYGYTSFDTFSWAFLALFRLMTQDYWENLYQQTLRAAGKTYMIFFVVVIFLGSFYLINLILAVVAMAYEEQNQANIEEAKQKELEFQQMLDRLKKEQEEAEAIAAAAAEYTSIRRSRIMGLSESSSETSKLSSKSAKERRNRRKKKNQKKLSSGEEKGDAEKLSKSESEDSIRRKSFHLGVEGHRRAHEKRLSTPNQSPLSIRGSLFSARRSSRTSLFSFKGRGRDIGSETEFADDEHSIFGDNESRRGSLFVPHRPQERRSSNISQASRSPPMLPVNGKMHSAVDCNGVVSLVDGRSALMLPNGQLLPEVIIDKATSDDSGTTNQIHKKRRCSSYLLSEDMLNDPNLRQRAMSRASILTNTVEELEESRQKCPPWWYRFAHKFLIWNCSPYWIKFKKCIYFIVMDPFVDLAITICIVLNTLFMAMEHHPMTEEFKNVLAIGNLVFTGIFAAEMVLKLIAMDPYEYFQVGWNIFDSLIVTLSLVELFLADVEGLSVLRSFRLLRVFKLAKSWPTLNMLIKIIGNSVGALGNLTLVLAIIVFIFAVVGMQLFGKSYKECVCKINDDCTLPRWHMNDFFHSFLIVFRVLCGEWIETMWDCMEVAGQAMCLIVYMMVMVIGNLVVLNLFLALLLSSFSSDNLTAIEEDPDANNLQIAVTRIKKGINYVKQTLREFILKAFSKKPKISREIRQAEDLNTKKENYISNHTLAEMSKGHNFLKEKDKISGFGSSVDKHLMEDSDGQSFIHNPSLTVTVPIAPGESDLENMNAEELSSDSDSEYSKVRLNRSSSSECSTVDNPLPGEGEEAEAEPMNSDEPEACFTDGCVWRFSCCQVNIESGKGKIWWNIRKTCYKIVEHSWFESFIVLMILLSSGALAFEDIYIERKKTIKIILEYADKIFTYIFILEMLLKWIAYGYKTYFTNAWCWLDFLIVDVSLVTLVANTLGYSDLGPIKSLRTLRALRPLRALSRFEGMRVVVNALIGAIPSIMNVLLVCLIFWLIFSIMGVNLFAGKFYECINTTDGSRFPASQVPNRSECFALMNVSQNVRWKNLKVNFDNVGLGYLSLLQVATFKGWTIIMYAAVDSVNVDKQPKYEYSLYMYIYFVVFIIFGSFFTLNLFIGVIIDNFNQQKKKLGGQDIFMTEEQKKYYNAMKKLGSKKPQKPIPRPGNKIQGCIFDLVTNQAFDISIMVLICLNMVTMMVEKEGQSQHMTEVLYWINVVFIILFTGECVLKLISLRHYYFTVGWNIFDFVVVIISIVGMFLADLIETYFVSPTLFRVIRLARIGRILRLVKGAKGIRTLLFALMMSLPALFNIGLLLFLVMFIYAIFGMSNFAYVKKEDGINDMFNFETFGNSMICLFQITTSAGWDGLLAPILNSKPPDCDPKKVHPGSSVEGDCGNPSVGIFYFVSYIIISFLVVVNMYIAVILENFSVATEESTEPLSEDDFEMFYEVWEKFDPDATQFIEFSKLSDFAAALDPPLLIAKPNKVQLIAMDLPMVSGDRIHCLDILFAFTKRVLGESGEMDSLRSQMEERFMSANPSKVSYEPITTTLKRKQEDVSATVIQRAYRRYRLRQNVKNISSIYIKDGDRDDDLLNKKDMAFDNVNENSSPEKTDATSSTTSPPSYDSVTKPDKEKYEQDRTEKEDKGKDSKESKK", "conditions": "see WO 2021/178903; cited from earlier work"}, "[5]": {"conditions": "by Baseline RCS, first subgroup (RCS category not given)"}, "[6]": {"conditions": "by Baseline RCS, second subgroup (r96-r180, RCS category not given)"}}}
{"smiles": "COCCOC(=O)C1=C(C)NC(C)=C(C(=O)OC/C=C/c2ccccc2)C1c1cccc([N+](=O)[O-])c1", "note": "(stereo not drawn) [Cilnidipine 10 mg]", "values": [{"measurement": "Average Duration of Weekly RP Attacks (All Attacks), Baseline, Mean", "setting": "[1]; Excluding Outliers", "result": 40.00, "unit": "min"}, {"measurement": "Average Duration of Weekly RP Attacks (All Attacks), Baseline, Median", "setting": "[1]; Excluding Outliers", "result": 40.00, "unit": "min"}, {"measurement": "Average Duration of Weekly RP Attacks (All Attacks), Baseline, Mean", "setting": "[1]", "result": 40.00, "unit": "min"}, {"measurement": "Average Duration of Weekly RP Attacks (All Attacks), Baseline, Median", "setting": "[1]", "result": 40.00, "unit": "min"}, {"measurement": "Average Duration of Weekly RP Attacks (All Attacks), Baseline, Mean", "setting": "[1]; [5]", "result": 40.00, "unit": "min"}, {"measurement": "Average Duration of Weekly RP Attacks (All Attacks), Baseline, Median", "setting": "[1]; [5]", "result": 40.00, "unit": "min"}]}
{"smiles": "COCCOC(=O)C1=C(C)NC(C)=C(C(=O)OC/C=C/c2ccccc2)C1c1cccc([N+](=O)[O-])c1", "note": "(stereo not drawn) [Cilnidipine 20 mg]", "values": [{"measurement": "Average Duration of Weekly RP Attacks (All Attacks), Baseline, Mean", "setting": "[1]; Excluding Outliers", "result": 17.81, "unit": "min"}, {"measurement": "Average Duration of Weekly RP Attacks (All Attacks), Baseline, Median", "setting": "[1]; Excluding Outliers", "result": 17.81, "unit": "min"}, {"measurement": "Average Duration of Weekly RP Attacks (All Attacks), Baseline, Mean", "setting": "[1]", "result": 17.81, "unit": "min"}, {"measurement": "Average Duration of Weekly RP Attacks (All Attacks), Baseline, Median", "setting": "[1]", "result": 17.81, "unit": "min"}, {"measurement": "Average Duration of Weekly RP Attacks (All Attacks), Baseline, Mean", "setting": "[1]; [5]", "result": 17.81, "unit": "min"}, {"measurement": "Average Duration of Weekly RP Attacks (All Attacks), Baseline, Median", "setting": "[1]; [5]", "result": 17.81, "unit": "min"}]}
{"smiles": "COCCOC(=O)C1=C(C)NC(C)=C(C(=O)OC/C=C/c2ccccc2)C1c1cccc([N+](=O)[O-])c1", "note": "(stereo not drawn) [Cilnidipine, cilnidipine, reference compound]", "values": [{"measurement": "Tmax (time to achieve maximal plasma concentrations)", "setting": "[2]", "result": 2, "unit": "h"}, {"measurement": "change in duration of Raynaud attacks (in words)", "setting": "[1]; cilnidipine or cilnidipine plus tadalafil (n=7), tadalafil monotherapy (n=2)", "result": "decrease greater than that seen in placebo treated patients"}, {"measurement": "patients in whom average frequency of Raynaud's attacks decreased more than 25%", "setting": "[3]; all cilnidipine and cilnidipine plus tadalafil treated patients together (n=7)", "result": "6 of 7"}, {"measurement": "change in weekly frequency of Raynaud attacks (in words)", "setting": "[3]; cilnidipine and cilnidipine plus tadalafil treated patients (n=7), tadalafil alone, milder and more severe disease", "result": "decrease"}, {"measurement": "Average Severity of Weekly Symptomatic RP Attacks, Mean", "setting": "[4]; Excluding Outliers", "result": 3.40}, {"measurement": "Average Severity of Weekly Symptomatic RP Attacks, Mean", "setting": "[4]", "result": 3.40}, {"measurement": "change in severity of attacks (in words)", "setting": "[4]; cilnidipine monotherapy (n=3), cilnidipine plus tadalafil (n=4) vs tadalafil monotherapy (n=2)", "result": "20 mg reducing severity more than 10 mg"}, {"measurement": "activity against the Nav 1.7 sodium channel", "setting": "Nav 1.7 sodium channel", "result": "has activity"}]}
{"smiles": "COCCOC(=O)C1=C(C)NC(C)=C(C(=O)OC/C=C/c2ccccc2)C1c1cccc([N+](=O)[O-])c1", "note": "(stereo not drawn) [Pooled Cilnidipine]", "values": [{"measurement": "Average Duration of Weekly RP Attacks (All Attacks), Baseline, Mean", "setting": "[1]; Excluding Outliers", "result": 25.21, "unit": "min"}, {"measurement": "Average Duration of Weekly RP Attacks (All Attacks), Baseline, Median", "setting": "[1]; Excluding Outliers", "result": 25.00, "unit": "min"}, {"measurement": "Average Duration of Weekly RP Attacks (All Attacks), Average Duration, Mean", "setting": "[1]; Excluding Outliers", "result": 21.66, "unit": "min"}, {"measurement": "Average Duration of Weekly RP Attacks (All Attacks), Average Duration, Median", "setting": "[1]; Excluding Outliers", "result": 30.45, "unit": "min"}, {"measurement": "Average Duration of Weekly RP Attacks (All Attacks), Baseline, Mean", "setting": "[1]; [5]", "result": 25.21, "unit": "min"}, {"measurement": "Average Duration of Weekly RP Attacks (All Attacks), Baseline, Median", "setting": "[1]; [5]", "result": 25.00, "unit": "min"}, {"measurement": "Average Duration of Weekly RP Attacks (All Attacks), Average Duration, Mean", "setting": "[1]; [5]", "result": 21.66, "unit": "min"}, {"measurement": "Average Duration of Weekly RP Attacks (All Attacks), Average Duration, Median", "setting": "[1]; [5]", "result": 30.45, "unit": "min"}]}
{"smiles": "CN1CC(=O)N2[C@H](c3ccc4c(c3)OCO4)c3[nH]c4ccccc4c3C[C@@H]2C1=O", "note": "[Tadalafil 5 mg]", "values": [{"measurement": "Average Duration of Weekly RP Attacks (All Attacks), Baseline, Mean", "setting": "[1]; Excluding Outliers", "result": 10.92, "unit": "min"}, {"measurement": "Average Duration of Weekly RP Attacks (All Attacks), Baseline, Median", "setting": "[1]; Excluding Outliers", "result": 10.92, "unit": "min"}, {"measurement": "Average Duration of Weekly RP Attacks (All Attacks), Baseline, Mean", "setting": "[1]; [6]", "result": 320.46, "unit": "min"}, {"measurement": "Average Duration of Weekly RP Attacks (All Attacks), Baseline, Median", "setting": "[1]; [6]", "result": 320.46, "unit": "min"}]}
{"smiles": "CCOC(=O)C1=C(COCCN)NC(C)=C(C(=O)OC)C1c1ccccc1Cl", "note": "(stereo not drawn) [amlodipine]", "values": [{"measurement": "time to reach maximal plasma concentrations", "setting": "[2]", "result": 10, "unit": "h"}]}
